# Publication PMC9611449, “Hydroxy-3-Phenylcoumarins as Multitarget Compounds for Skin Aging Diseases: Synthesis, Molecular Docking and Tyrosinase, Elastase, Collagenase and Hyaluronidase Inhibition, and Sun Protection Factor” (Molecules, 2022)
# “Also recorded” adds a separate entry of the source.
# Legend:
# [1] = test system: mushroom tyrosinase; test: Tyrosinase inhibition assay (L-DOPA substrate); format: biochemical
# Method: (§1) Since the compounds were dissolved in DMSO, in the assays carried out without compounds, DMSO was added to the reaction mixture as blank control. […] Data from activity experiments were recorded using an Ultrospec 2100 spectrophotometer (Biochrom Ltd., Cambridge, UK).
# The inhibition of tyrosinase was monitored by using DOPA as substrate. The reaction solution contained phosphate buffer (25 mM, pH 6.8) and mushroom tyrosinase (100 U/mL), with or without test samples.
# [2] = biological target: porcine pancreatic elastase (Sus scrofa, UniProt P00772); test: Elastase inhibition assay (SANA substrate); format: biochemical
# Method: as §1
# The inhibition of elastase was determined by measuring the production of p-nitroaniline during the reaction of the enzyme with the N-succ-(Ala)3-nitroanilide (SANA) substrate. The assay was carried out in Tris-HCl buffer (0.1 M, pH 8.0) containing porcine pancreatic elastase (3.3 µg/mL). The reaction mixture was incubated in the presence or in the absence of the test compounds for 20 minutes and, once the substrate (1.6 mM) was added, the enzyme activity was monitored at 410 nm.
# [3] = test system: Collagenase from Clostridium histolyticum; test: Collagenase inhibition assay (FALGPA substrate); format: biochemical
# Method: as §1, with “Results from all the inhibition tests described below were reported as a percentage of the blank control. Since” for “Since”
# Collagenase from Clostridium histolyticum (1 U/mL) was prepared in 0.05 M Tricine buffer (pH 7.5), with 0.4 M NaCl and 0.01 M CaCl2, and incubated with different concentrations of test samples for 15 minutes. After adding the N-(3-[2-Furyl]-acryloyl)-Leu-Gly-Pro-Ala (FALGPA) substrate, prepared in the same buffer solution reaching a final concentration of 0.8 mM, the absorbance was registered at 340 nm. Epigallocatechin gallate was used as a positive control.
# [4] = test system: Human skin keratinocyte cell line (HaCaT); test: HaCaT cell viability (MTT assay); format: cell-based; conditions: 10–200 μM, 24 h
# Method: Human skin keratinocyte cell line (HaCaT; CLS–Cell Lines Service, Eppelheim, Germany) was cultured in Dulbecco’s Modified Eagle’s Medium (DMEM) with 10% fetal bovine serum (FBS; Gibco, NY, USA) and 1% penicillin/streptomycin at 37 °C in a humidified atmosphere with 5% CO2. Cell viability was determined by the MTT (3-(4,5-dimethylthiazol-2-yl)-2,5-diphenyltetrazolium bromide) colorimetric assay, as previously reported. Briefly, HaCaT cells were seeded in 96-well plates and incubated with compounds at different concentrations (0–200 µM). After 24 h, cells were labelled with MTT solution for 3 h at 37 °C. DMSO was added to the formed violet formazan precipitates and the absorbance of each well was measured at 560 nm.
# [5] = biological target: mushroom tyrosinase; design: method as in doi:10.1039/C5RA14465E; conditions: data previously reported; cited from earlier work
# [6] = mean ± SD of three independent experiments
# Sequence of porcine pancreatic elastase (P00772 27-266): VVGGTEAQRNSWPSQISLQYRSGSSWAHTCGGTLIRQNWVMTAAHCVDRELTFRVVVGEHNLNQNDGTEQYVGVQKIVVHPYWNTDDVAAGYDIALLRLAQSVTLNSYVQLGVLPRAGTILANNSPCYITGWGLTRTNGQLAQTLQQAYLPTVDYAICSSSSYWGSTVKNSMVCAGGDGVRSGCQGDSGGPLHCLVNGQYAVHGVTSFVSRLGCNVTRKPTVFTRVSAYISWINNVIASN
smiles,measurement,setting,value
"O=c1oc2cc(O)cc(O)c2cc1-c1ccc(Br)cc1 [Compound 1, 3-(4′-Bromophenyl)-5,7-dihydroxycoumarin]",Enzyme inhibition Tyrosinase,[1]; 50 μM,98.3%
same,times more active than the standard inhibitor kojic acid (tyrosinase),[1]; ratio of IC50 values,17 times
same,inhibition at 50 µM,"[2]; 50 μM, read-out: Enzyme inhibition Elastase",15.6%
same,IC50,[2]; [6],> 50 µM
same,Enzyme inhibition Collagenase,[3]; 100 μM,42.6%
same,IC50,[3]; [6],123 ± 2.2 µM
same,Cytotoxicity on HaCaT cell viability,[4],non-cytotoxic; also recorded: no toxicity
same,melting point,,273 to 275 °C
same,IC50,[5],1.05 ± 0.06 µM
